Legend:
[1] = target: Serine/threonine-protein kinase OSR1 (Homo sapiens) (UniProt O95747)
[2] = target: Cyclin-dependent kinase 6 (Homo sapiens) (UniProt Q00534)
[3] = target: Calcium/calmodulin-dependent protein kinase type 1D (Homo sapiens) (UniProt Q8IU85)
[4] = target: Casein kinase I isoform gamma-2 (Homo sapiens) (UniProt P78368)
[5] = target: T1, Serine/threonine-protein kinase VRK1 (Homo sapiens) (UniProt Q99986)
T1 sequence (whole entry): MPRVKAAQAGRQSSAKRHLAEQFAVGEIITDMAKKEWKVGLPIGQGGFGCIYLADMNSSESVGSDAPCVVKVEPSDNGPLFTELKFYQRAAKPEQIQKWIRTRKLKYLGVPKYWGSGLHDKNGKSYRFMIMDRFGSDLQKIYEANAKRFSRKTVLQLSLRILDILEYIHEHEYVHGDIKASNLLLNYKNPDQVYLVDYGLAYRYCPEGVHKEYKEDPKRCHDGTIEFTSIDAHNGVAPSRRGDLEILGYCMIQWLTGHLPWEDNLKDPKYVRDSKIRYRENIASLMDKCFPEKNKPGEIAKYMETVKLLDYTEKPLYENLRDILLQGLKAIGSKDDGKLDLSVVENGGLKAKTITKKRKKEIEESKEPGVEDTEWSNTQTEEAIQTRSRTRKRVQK

[6] = target: Serine/threonine-protein kinase VRK2 (Homo sapiens) (UniProt Q86Y07)
Sequence of Serine/threonine-protein kinase VRK2 (Homo sapiens) (Q86Y07 whole entry): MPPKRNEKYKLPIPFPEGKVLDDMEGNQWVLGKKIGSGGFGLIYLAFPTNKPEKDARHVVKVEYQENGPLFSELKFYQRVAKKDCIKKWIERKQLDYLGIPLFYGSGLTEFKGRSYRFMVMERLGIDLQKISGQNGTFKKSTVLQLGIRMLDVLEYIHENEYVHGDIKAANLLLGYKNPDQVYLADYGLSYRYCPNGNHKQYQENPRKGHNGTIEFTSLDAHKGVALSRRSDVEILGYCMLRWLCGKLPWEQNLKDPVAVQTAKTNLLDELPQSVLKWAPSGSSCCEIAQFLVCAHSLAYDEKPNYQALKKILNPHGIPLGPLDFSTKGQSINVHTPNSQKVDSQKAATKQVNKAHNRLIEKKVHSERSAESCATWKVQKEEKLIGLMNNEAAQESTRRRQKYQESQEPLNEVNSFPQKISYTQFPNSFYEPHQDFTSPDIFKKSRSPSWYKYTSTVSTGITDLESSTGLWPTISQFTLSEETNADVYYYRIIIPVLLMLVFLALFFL

[7] = target: Dual specificity protein kinase CLK1 (Homo sapiens) (UniProt P49759)
[8] = target: Mitogen-activated protein kinase 6 (Homo sapiens) (UniProt Q16659)
[9] = target: Serine/threonine-protein kinase PAK 4 (Homo sapiens) (UniProt O96013)
Sequence of Serine/threonine-protein kinase PAK 4 (Homo sapiens) (O96013 whole entry, looked up): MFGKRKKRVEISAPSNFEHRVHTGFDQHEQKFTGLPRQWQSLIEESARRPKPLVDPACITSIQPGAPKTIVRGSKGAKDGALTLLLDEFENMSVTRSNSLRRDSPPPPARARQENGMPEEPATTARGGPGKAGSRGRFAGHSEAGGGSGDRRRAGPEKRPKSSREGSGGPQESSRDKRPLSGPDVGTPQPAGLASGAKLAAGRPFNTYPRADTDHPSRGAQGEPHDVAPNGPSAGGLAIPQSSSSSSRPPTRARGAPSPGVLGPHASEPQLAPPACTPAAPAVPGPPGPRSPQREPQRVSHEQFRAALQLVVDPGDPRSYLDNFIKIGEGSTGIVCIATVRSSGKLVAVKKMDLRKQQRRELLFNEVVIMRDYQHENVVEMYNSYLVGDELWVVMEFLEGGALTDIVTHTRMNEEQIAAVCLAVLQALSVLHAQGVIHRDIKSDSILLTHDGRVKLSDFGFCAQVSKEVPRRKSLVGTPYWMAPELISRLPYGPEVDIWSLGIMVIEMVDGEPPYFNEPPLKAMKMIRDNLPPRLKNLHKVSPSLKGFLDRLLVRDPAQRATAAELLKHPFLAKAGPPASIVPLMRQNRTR

[10] = target: Calcium/calmodulin-dependent protein kinase type II subunit beta (Homo sapiens) (UniProt Q13554)
Sequence of Calcium/calmodulin-dependent protein kinase type II subunit beta (Homo sapiens) (Q13554 whole entry): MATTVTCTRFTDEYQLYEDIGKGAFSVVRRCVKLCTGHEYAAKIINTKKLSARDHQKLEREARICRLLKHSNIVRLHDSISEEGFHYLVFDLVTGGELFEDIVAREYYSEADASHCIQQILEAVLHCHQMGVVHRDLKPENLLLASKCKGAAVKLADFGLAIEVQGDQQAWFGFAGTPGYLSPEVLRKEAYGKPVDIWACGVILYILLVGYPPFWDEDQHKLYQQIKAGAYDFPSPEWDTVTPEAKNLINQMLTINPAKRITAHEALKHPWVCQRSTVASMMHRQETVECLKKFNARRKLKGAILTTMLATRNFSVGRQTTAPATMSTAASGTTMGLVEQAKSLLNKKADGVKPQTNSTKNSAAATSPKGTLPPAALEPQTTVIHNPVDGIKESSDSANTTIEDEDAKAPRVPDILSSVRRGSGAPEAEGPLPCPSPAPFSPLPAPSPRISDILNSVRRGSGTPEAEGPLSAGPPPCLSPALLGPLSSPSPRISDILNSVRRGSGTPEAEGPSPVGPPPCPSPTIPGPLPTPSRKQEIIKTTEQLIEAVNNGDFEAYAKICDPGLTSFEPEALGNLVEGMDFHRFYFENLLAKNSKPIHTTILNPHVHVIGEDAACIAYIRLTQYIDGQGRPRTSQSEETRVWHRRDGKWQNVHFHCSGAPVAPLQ

[11] = target: Serine/threonine-protein kinase pim-1 (Homo sapiens) (UniProt P11309)
Sequence of Serine/threonine-protein kinase pim-1 (Homo sapiens) (P11309 whole entry, looked up): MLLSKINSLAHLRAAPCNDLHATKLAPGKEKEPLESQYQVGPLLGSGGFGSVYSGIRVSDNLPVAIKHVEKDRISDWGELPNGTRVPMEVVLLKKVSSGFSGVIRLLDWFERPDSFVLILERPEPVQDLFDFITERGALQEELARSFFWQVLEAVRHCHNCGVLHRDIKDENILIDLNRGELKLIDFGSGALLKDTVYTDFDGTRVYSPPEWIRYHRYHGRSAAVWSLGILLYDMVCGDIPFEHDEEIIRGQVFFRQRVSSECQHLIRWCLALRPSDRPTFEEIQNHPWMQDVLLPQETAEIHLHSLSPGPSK

[12] = target: Mitogen-activated protein kinase 3 (Homo sapiens, UniProt P27361)
[13] = target: Ribosomal protein S6 kinase alpha-3 (Homo sapiens) (UniProt P51812)
Sequence of Ribosomal protein S6 kinase alpha-3 (Homo sapiens) (P51812 whole entry): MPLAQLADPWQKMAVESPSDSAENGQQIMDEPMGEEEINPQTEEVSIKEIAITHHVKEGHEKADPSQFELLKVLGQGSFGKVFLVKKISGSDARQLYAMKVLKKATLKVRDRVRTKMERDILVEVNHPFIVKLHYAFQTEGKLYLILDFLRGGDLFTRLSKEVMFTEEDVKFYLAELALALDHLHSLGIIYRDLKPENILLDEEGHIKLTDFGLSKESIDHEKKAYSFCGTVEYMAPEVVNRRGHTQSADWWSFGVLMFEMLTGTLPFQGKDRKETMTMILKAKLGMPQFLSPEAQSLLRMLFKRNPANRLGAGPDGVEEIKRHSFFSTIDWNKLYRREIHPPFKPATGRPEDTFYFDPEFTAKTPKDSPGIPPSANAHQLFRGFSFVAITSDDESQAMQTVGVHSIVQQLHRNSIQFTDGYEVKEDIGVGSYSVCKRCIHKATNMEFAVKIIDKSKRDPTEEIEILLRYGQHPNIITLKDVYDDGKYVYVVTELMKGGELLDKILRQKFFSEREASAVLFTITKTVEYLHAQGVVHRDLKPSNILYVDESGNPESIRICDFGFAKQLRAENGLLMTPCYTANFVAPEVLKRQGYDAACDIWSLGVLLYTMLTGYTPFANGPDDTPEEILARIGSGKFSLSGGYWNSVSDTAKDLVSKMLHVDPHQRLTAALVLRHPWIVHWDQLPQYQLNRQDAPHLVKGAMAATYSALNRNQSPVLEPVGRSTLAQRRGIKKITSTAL

[14] = target: Serine/threonine-protein kinase 10 (Homo sapiens) (UniProt O94804)
Sequence of Serine/threonine-protein kinase 10 (Homo sapiens) (O94804 whole entry, looked up): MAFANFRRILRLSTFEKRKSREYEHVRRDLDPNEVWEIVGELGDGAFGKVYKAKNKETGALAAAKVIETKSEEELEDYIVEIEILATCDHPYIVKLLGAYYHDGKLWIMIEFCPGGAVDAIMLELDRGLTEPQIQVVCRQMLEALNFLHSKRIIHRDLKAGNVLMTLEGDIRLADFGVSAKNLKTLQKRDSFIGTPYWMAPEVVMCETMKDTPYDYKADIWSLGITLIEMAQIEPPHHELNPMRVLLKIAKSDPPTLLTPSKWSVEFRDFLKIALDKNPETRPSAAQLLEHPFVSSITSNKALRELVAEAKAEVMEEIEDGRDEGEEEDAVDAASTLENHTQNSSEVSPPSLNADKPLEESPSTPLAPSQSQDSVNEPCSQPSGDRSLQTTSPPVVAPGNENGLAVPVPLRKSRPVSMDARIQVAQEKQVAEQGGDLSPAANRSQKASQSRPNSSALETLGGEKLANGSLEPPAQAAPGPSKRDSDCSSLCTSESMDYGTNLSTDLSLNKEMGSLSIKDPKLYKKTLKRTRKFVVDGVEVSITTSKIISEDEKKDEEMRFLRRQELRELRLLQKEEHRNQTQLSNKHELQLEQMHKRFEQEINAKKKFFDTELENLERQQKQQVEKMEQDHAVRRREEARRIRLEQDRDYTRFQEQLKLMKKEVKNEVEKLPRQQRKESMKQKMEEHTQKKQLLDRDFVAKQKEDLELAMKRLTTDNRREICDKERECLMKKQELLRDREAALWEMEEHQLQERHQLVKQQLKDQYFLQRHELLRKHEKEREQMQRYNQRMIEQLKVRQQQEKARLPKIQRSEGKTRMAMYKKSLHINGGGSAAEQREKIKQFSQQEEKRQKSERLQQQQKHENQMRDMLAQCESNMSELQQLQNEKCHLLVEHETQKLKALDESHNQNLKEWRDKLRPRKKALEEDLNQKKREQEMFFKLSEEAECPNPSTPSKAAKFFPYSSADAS

[15] = target: T2, Mitogen-activated protein kinase kinase kinase 5 (Homo sapiens) (UniProt Q99683)
T2 sequence (whole entry): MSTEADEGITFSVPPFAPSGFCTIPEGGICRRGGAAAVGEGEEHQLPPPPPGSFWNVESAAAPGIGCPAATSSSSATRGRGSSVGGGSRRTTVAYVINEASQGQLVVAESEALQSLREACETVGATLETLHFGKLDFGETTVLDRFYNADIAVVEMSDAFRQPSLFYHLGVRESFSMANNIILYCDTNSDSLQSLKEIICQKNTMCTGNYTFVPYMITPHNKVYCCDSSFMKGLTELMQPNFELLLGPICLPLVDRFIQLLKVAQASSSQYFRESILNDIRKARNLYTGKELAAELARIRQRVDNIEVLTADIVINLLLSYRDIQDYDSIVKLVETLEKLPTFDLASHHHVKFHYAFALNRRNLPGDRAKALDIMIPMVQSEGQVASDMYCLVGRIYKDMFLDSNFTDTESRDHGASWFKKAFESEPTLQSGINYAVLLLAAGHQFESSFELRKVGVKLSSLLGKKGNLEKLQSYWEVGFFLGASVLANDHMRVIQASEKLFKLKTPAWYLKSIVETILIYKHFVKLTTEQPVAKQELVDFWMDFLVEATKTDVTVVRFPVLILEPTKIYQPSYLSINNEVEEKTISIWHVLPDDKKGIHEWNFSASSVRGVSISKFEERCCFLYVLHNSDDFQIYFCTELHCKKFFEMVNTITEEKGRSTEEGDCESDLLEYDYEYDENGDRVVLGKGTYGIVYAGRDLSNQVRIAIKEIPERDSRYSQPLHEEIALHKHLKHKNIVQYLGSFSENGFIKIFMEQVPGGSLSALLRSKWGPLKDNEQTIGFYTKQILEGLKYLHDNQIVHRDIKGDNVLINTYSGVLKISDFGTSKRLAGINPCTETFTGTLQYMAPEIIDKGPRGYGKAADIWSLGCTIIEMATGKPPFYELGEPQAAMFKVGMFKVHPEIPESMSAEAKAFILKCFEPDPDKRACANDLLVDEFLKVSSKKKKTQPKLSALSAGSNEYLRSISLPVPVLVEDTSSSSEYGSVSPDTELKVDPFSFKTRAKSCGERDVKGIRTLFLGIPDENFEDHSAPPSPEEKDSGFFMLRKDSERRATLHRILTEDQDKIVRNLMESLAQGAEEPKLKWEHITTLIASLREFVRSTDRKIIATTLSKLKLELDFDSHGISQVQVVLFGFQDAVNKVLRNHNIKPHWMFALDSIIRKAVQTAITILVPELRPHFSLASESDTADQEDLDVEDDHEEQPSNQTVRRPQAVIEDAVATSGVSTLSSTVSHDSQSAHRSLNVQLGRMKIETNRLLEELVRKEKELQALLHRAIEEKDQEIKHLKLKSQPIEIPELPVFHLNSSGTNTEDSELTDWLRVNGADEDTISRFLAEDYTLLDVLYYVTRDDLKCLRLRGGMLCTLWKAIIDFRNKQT

[16] = target: Tyrosine-protein kinase JAK1 (Homo sapiens) (UniProt P23458)
[17] = target: Cyclin-dependent kinase 16 (Homo sapiens) (UniProt Q00536)
[18] = target: Serine/threonine-protein kinase PAK 5 (Homo sapiens) (UniProt Q9P286)

Sequence of Cyclin-dependent kinase 6 (Homo sapiens) (Q00534 whole entry): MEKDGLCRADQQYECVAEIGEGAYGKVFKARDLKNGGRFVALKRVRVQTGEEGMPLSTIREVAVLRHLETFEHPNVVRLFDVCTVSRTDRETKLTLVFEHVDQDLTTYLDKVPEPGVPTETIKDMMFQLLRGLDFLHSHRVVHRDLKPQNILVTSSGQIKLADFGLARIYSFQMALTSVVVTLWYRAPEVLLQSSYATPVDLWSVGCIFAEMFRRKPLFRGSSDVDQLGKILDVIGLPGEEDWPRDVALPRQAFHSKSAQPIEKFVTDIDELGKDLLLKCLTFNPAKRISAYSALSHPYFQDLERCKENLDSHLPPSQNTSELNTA
Sequence of Casein kinase I isoform gamma-2 (Homo sapiens) (P78368 whole entry, looked up, canonical isoform): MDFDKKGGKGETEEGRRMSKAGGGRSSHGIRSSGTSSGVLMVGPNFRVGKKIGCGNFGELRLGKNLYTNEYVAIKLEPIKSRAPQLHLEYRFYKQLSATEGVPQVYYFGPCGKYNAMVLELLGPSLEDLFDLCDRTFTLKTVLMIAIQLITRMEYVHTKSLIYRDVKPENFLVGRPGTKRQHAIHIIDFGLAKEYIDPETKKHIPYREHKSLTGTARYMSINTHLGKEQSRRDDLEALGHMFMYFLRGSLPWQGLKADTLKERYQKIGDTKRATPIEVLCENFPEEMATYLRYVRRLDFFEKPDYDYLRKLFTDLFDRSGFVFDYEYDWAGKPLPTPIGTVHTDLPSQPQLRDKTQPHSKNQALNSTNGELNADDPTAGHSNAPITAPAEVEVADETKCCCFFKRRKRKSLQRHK
Sequence of Calcium/calmodulin-dependent protein kinase type 1D (Homo sapiens) (Q8IU85 whole entry, looked up, canonical isoform): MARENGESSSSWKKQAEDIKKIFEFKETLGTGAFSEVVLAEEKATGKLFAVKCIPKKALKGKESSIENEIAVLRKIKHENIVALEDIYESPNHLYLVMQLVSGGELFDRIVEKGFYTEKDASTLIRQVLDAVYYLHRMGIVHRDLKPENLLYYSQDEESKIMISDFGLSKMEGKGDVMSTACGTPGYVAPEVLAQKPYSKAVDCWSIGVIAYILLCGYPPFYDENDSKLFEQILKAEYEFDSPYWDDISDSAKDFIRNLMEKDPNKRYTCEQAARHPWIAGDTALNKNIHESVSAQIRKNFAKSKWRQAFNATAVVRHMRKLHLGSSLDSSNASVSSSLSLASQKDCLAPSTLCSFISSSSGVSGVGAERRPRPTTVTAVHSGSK

Row | SMILES | ΔTm [1] [°C] | ΔTm [2] [°C] | ΔTm [3] [°C] | ΔTm [4] [°C] | ΔTm [5] [°C] | ΔTm [6] [°C] | ΔTm [7] [°C] | ΔTm [8] [°C] | ΔTm [9] [°C] | ΔTm [10] [°C] | ΔTm [11] [°C] | ΔTm [12] [°C] | ΔTm [13] [°C] | ΔTm [14] [°C] | ΔTm [15] [°C] | ΔTm [16] [°C] | ΔTm [17] [°C] | ΔTm [18] [°C]
1 | O=C1Nc2ccccc2/C1=C/c1cnc[nH]1 | 2.4 | 4.4 | 0.7 | 1.6 | 0.5 | 2.1 | 3.3 | 0.5 | 2.2 | 0.8 | 3 | 2.1 | 1 | 4.2 | 5 | 6.9 | 4.7 | 0.7
2 | Cc1cc(C=C2C(=O)C=CC2=O)cc(C)c1O | 0.1 | -3.4 | -1 | 0.5 | -3.1 | 0.2 | -0.4 | -1.6 | 0.7 | -0.1 | -1.4 | 0.6 | -7.9 | 1.2 | 2.6 | -7.1 | 2.2 | 0.1
3 | COc1cccc(-c2cc(=O)c3ccccc3o2)c1N | 0.2 | 0.1 | -0.1 | 0.5 | 0.2 | 0.2 | 0.2 | 0.3 | 0.5 | 0 | 0.9 | 0 | -0.2 | 0.4 | -0.1 | 1 | -0.2 | -0.2
4 | COc1nccc(-c2c(-c3ccc(F)cc3)ncn2[C@H]2CC[C@H](O)CC2)n1 | 0.1 | 0.1 | -0.1 | 1 | 1.2 | 0.8 | 1.7 | 0.8 | 0.7 | – | -0.5 | 0 | 0.2 | 1.9 | – | 0.8 | 0.6 | 0.1
5 | CCN1/C(=C/C(C)=O)Sc2ccc(OC)cc21 | 0.1 | 0.4 | 0 | – | 0.3 | 0.4 | – | 0 | 0.9 | 0.3 | 6.3 | -0.4 | -0.6 | 0.4 | 0.4 | -0.4 | -0.5 | 0
6 | CN(C)C[C@@H]1CCn2cc(c3ccccc32)C2=C(C(=O)NC2=O)c2cn(c3ccccc23)CCO1 [RUBOXISTAURIN] | -0.5 | 0.5 | – | 0.9 | 0.8 | 1 | 5.4 | 0.1 | – | 0.5 | – | 0.5 | 0.9 | 7.2 | 0.1 | -0.5 | – | 0.9
7 | O=C1Nc2ccccc2/C1=C\c1ccc[nH]1 | 2.7 | 2.6 | 1.3 | 1.6 | 0.3 | 3.4 | 2.7 | -0.1 | 1.2 | 0.6 | 0.1 | 0.3 | – | 5.3 | 5.2 | 8.5 | 1.7 | 0.7
8 | O=C1Cc2c([nH]c3ccc(Br)cc23)-c2ccccc2N1 [KENPAULLONE] | 1.8 | 0.7 | 1 | 0 | -0.1 | 0.2 | 1.7 | 0.9 | 3.4 | 0.5 | 2.6 | 0.5 | – | 2.2 | 0.8 | 1.7 | 2 | 3.5
9 | CC[C@H](CO)Nc1nc(NCc2ccccc2)c2ncn(C(C)C)c2n1 [SELICICLIB] | 1 | 0.2 | 0 | – | 0 | 2.1 | 2.1 | -0.4 | 1.7 | 0.3 | -1 | 0.4 | 1.4 | – | 1 | 0.1 | – | 0.6
10 | COc1ccc2c(c1)/C(=C/c1cnc[nH]1)C(=O)N2 [SU-9516] | 1.3 | 3 | 0.5 | 0.7 | 0.5 | 0.7 | 3.4 | 0.2 | 1.8 | – | 1.3 | 2.6 | – | 3.5 | 5.4 | 8.4 | 3.3 | 1.2
11 | Oc1cc(O)cc(/C=C/c2ccc(O)c(O)c2)c1 [PICEATANNOL] | 1.6 | 0.3 | 1.1 | 0.2 | 0.2 | -0.4 | 0.9 | 0.9 | 1.5 | -0.2 | 3.2 | 0.2 | – | 0.6 | -0.6 | 2 | 0 | -0.9
12 | CCCNC(=O)Nc1ccc(Oc2ncnc3cc(OC)c(OC)cc23)cc1Cl [KRN-633] | 0.3 | 0.6 | 0.5 | 0.5 | 0.3 | – | -1.7 | 1.2 | 0.5 | 0.8 | 0.5 | 0.5 | 10.7 | 0.4 | 0.3 | 1 | -0.1 | -0.2
13 | CN(C)CCCn1cc(C2=C(c3c[nH]c4ccccc34)C(=O)NC2=O)c2ccccc21 [GF-109203] | 2.4 | 0.4 | 1.1 | 0.5 | 0.2 | 0.9 | 6.3 | -0.2 | 2.5 | 0.9 | – | 0.6 | 0.8 | 6.7 | 0.9 | 1.5 | 3 | 1

— ChEMBL document CHEMBL1145498, “A systematic interaction map of validated kinase inhibitors with Ser/Thr kinases” (Proc Natl Acad Sci U S A, 2007)
